Measured values as given in patent US20250177408A1, “INHIBITOR OF INTERACTION BETWEEN YAP/TAZ AND TEAD, PREPARATION THEREOF, PHARMACEUTICAL COMPOSITION THEREOF AND USE THEREOF” (ETERN BIOPHARMA (SHANGHAI) CO., LTD., priority 2022, published 2025).
Where two headings read alike, the source gives them in different places.

How the values were obtained:
[1] = biological target: YAP-TEAD protein interaction (His-TEAD1 (209-426) protein, Bio-YAP peptide (60-100)) (Homo sapiens, UniProt P28347); experiment: YAP-TEAD protein interaction HTRF experiment; format: binding; settings: His-TEAD1 (209-426) 10 nM, Bio-YAP peptide 50 nM, read-out: Activity of each compound in blocking YAP-TEAD protein interaction (grades of IC50 values)
Experimental: In this example, the YAP-TEAD protein interaction HTRF experiment was used to detect the activity of each compound in blocking the YAP-TEAD protein interaction.
The experiment was carried out according to the following operation steps:
Step 1: His-TEAD1 (209-426) protein was added to a 384-well detection white plate to a final concentration of 10 nM, and buffer was used as the background signal well. The compounds to be tested were subjected to 3-fold dilution and a total of 10 concentration gradients were set up, and each diluted solution was mixed well. A certain volume of the compound to be tested was added to each well separately, 2 replicates were set for each concentration, and the final concentration of DMSO was controlled at 1%. Incubation was carried out at room temperature for 20 minutes. The amino acid sequence of TAED1 (209-426) used in this step is shown in SEQ ID NO: 1:
After mixing evenly, the mixture was incubated at room temperature for 10 minutes.
Step 3: Anti-His-Eu cryptate gold and streptavidin-XL665 were diluted according to the instructions and mixed in equal proportions. A certain volume of the detection reagent was added to the well, and the mixture was incubated at room temperature for 1 hour.
Step 4: The signal was detected using an Envision (Perkin Elmer) microplate reader at an excitation wavelength of 320 nm and emission wavelengths of 665 nm and 620 nm.
Step 5: The signal was calculated based on the ratio of Em665/Em620*10000.
(§1) The inhibition percentage (%) was calculated using the following formula: […]
The half-maximal inhibitory concentration (IC50) values were calculated using GraphPad Prism software.

MSTO-211H cells = experiment: Cell proliferation inhibition experiment (CellTiter-Glo); format: cell-based; settings: 96 hours, read-out: Inhibitory activity of each compound on the proliferation of MSTO-211H cells (grades of IC50 values)
Experimental: In this example, the intracellular ATP was quantitatively determined by the CellTiter-Glo luminescence cell viability detection kit to detect the number of living cells in the culture.
Step 1: MSTO-211H (ATCC, CRL-2081TM) or NCI-H2052 (ATCC, CRL-5915TM) cells were inoculated in a 96-well plate at a density of 1500 cells per well with a volume of 100 μL per well, and the cells were incubated overnight in a 37° C., 5% carbon dioxide incubator. The culture medium used was RPMI1640 medium (GIBCO-A10491-01)+10% FBS (GIBCO-10099141C)+1% penicillin/streptomycin (Pen/Strep) (GIBCO-15070-063).
Step 2: The cells were treated with the compounds to be tested. The compounds to be tested were 3-fold diluted, and a total of 9 concentration gradients were set up; a certain volume of DMSO or the compounds to be tested was added to each well, respectively, and 2 replicates were set up for each concentration, and the final concentration of DMSO was controlled to be no higher than 0.5%. The cells were incubated for 96 hours in a 37° C., 5% carbon dioxide incubator.
Step 3: Cell viability was detected in the control group and treatment group using CellTiter-Glo Luminescent Cell Viability Assay kit (Promega, G7570). 50 μL of CellTiter-Glo was added to each well, mixed well, and incubated at room temperature for 10 minutes. The signal was read using En Vision® Multilabel Plate Reader (Perkin Elmer).
as §1
Using Graphpad Prism software, the IC50 values of the compounds inhibiting the CTG signal of cell proliferation activity was calculated.

YAP-TEAD protein interaction (His-TEAD1 (209-426) protein, Bio-YAP peptide (60-100)), sequence (P28347 209-426): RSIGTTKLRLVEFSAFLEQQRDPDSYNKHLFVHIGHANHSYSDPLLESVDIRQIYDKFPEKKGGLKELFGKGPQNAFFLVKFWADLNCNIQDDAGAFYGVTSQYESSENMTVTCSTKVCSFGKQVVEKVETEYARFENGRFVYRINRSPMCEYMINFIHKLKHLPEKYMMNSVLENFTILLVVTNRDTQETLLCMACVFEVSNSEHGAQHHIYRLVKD

| Structure (SMILES) | IC50 [1] [µM] | IC50 (MSTO-211H cells; Homo sapiens) [µM] | IC50 (MSTO-211H cells) [µM] |
| --- | --- | --- | --- |
| CNC(=O)c1cc2c(c(F)c1-c1c(Cl)c(F)cc3c1C[C@](c1ccccc1)([C@@H]1CCCN1)O3)Oc1c(cnn(C3CC(F)(F)C3)c1=O)O2 (atropisomer, axis not shown) [Compound 148, (S)-8-((S)-5-Chloro-6-fluoro-2-phenyl-2-((S)-pyrrolidin-2-yl)-2,3-dihydrobenzofuran-4-yl)-2-(3,3-difluorocyclobutyl)-9-fluoro-N-methyl-1-oxo-1,2-dihydrobenzo [5,6][1,4]dioxo [2,3-d]pyridazine-7-carboxamide] | < 0.05 | < 0.2 | – |
| NC(=O)c1cc2c(c(F)c1-c1c(Cl)c(F)cc3c1C[C@](c1ccccc1)([C@@H]1CCCN1)O3)OCc1n[nH]nc1-2 (atropisomer, axis not shown) [Compound 7, (S)-7-((S)-5-Chloro-6-fluoro-2-phenyl-2-((S)-pyrrolidin-2-yl)-2,3-dihydrobenzofuran-4-yl)-6-fluoro-2,4-dihydrochromeno[3,4-d][1,2,3]triazole-8-carboxamide] | < 0.05 | 0.2 to 0.5 | – |
| NC(=O)c1cc2c(c(F)c1-c1c(Cl)c(F)cc3c1C[C@](c1ccccc1)([C@@H]1CCCN1)O3)Oc1nn(C3CC3)c(=O)cc1O2 (atropisomer, axis not shown) [Compound 128, (S)-8-((S)-5-Chloro-6-fluoro-2-phenyl-2-((S)-pyrrolidin-2-yl)-2,3-dihydrobenzofuran-4-yl)-2-cyclopropyl-9-fluoro-3-oxo-2,3-hydrobenzo[5,6][1,4]dioxo [2,3-c]pyridazine-7-carboxamide] | < 0.05 | < 0.2 | – |
| Cn1cc2c(n1)COc1c-2cc(C(N)=O)c(-c2c(Cl)c(F)cc3c2C[C@](c2ccccc2)([C@@H]2CCC(=O)N2)O3)c1F (atropisomer, axis not shown) [Compound 115, (S)-7-((S)-5-Chloro-6-fluoro-2-((S)-5-oxopyrrolidin-2-yl)-2-phenyl-2,3-dihydrobenzofuran-4-yl)-6-fluoro-2-methyl-2,4-dihydrochromeno[3,4-c]pyrazole-8-carboxamide] | < 0.05 | 0.5 to 5 | – |
| NC(=O)c1cc2c(c(F)c1-c1c(Cl)c(F)cc3c1C[C@](c1ccccc1)([C@@H]1CCCN1)O3)Oc1ccnnc1O2 [Compound 103, (S)-7-((S)-5-Chloro-6-fluoro-2-phenyl-2-((S)-pyrrolidin-2-yl)-2,3-dihydrobenzofuran-4-yl)-6-fluorobenzo[5,6][1,4]dioxo[2,3-c]pyridazine-8-carboxamide] | < 0.05 | – | 0.5 to 5 |
| COCCn1ncc2c(c1=O)Oc1c(cc(C(N)=O)c(-c3c(Cl)c(F)cc4c3C[C@](c3ccccc3)([C@@H]3CCCN3)O4)c1F)O2 (atropisomer, axis not shown) [Compound 149, (R)-8-((S)-5-Chloro-6-fluoro-2-phenyl-2-((S)-pyrrolidin-2-yl)-2,3-dihydrobenzofuran-4-yl)-9-fluoro-2-(2-methoxyethyl)-1-oxo-1,2-dihydrobenzo[5,6][1,4]dioxa[2,3-d]pyridazine-7-carboxamide] | < 0.05 | < 0.2 | – |
| Cn1cc2c(n1)COc1c-2cc(C(N)=O)c(-c2c(Cl)c(F)cc3c2C[C@@](CN[C@H]2CC[C@H](O)CC2)(c2ccccc2)O3)c1F (atropisomer, axis not shown) [Compound 81] | < 0.05 | < 0.2 | – |
| Cn1ccc2c(c1=O)Oc1c(cc(C(N)=O)c(-c3c(Cl)c(F)cc4c3C[C@](c3ccccc3)([C@@H]3CCCN3)O4)c1F)O2 (atropisomer, axis not shown) [Compound 135, (S)-8-((S)-5-Chloro-6-fluoro-2-phenyl-2-((S)-pyrrolidin-2-yl)-2,3-dihydrobenzofuran-4-yl)-9-fluoro-2-methyl-1-oxo-1,2-dihydrobenzo[5,6][1,4]dioxo[2,3-c]pyridine-7-carboxamide] | < 0.05 | < 0.2 | – |
| [2H]C1([2H])CC[C@]([2H])([C@@]2(c3ccccc3)Cc3c(cc(F)c(Cl)c3-c3c(C(N)=O)cc4c(c3F)Oc3c(cnn(C5CC(F)(F)C5)c3=O)O4)O2)N1 (atropisomer, axis not shown) [Compound 154, (S)-8-((S)-5-Chloro-6-fluoro-2-phenyl-2-((S)-pyrrolidin-2-yl-2,5,5-d3)-2,3-dihydrobenzofuran-4-yl)-2-(3,3-difluorocyclobutyl)-9-fluoro-1-oxo-1,2-dihydrobenzo[5,6][1,4]dioxo [2,3-d]pyridazine-7-carboxamide] | < 0.05 | < 0.2 | – |
| CNC(=O)c1cc2c(c(F)c1-c1c(Cl)c(F)cc3c1C[C@](c1ccccc1)([C@@H]1CCCN1)O3)Oc1c(cnn(CCOC)c1=O)O2 (atropisomer, axis not shown) [Compound 150, (S)-8-((S)-5-Chloro-6-fluoro-2-phenyl-2-((S)-pyrrolidin-2-yl)-2,3-dihydrobenzofuran-4-yl)-9-fluoro-2-(2-methoxyethyl)-N-methyl-1-oxo-1,2-dihydrobenzo [5,6][1,4]dioxo [2,3-d]pyridazine-7-carboxamide] | < 0.05 | < 0.2 | – |
| NC(=O)c1cc2c(c(F)c1-c1c(Cl)c(F)cc3c1C[C@](c1ccccc1)([C@@H]1CCCN1)O3)Oc1cnn(CC(F)F)c(=O)c1O2 (atropisomer, axis not shown) [Compound 121, (S)-8-((S)-5-Chloro-6-fluoro-2-phenyl-2-((S)-pyrrolidin-2-yl)-2,3-dihydrobenzofuran-4-yl)-9-fluoro-3-(2,2-difluoroethyl)-4-oxo-3,4-dihydrobenzo[5,6][1,4]dioxo[2,3-d]pyridazine-7-carboxamide] | < 0.05 | 0.2 to 0.5 | – |
| [2H]c1c([2H])c([2H])c([C@]2([C@@H]3CCCN3)Cc3c(cc(F)c(Cl)c3-c3c(C(N)=O)cc4c(c3F)OCc3nn(C)cc3-4)O2)c([2H])c1[2H] (atropisomer, axis not shown) [Compound 116, (S)-7-((S)-5-Chloro-6-fluoro-2-(phenyl-d5)-2-((S)-pyrrolidin-2-yl)-2,3-dihydrobenzofuran-4-yl)-6-fluoro-2-methyl-2,4-dihydrochromeno[3,4-c]pyrazole-8-carboxamide] | < 0.05 | < 0.2 | – |
| NC(=O)c1cc2c(c(F)c1-c1c(Cl)c(F)cc3c1C[C@](c1ccccc1)([C@@H]1CCCN1)O3)Oc1c(ncn(C3CC3)c1=O)O2 (atropisomer, axis not shown) [Compound 139, (S)-7-((S)-5-Chloro-6-fluoro-2-phenyl-2-((S)-pyrrolidin-2-yl)-2,3-dihydrobenzofuran-4-yl)-3-cyclopropyl-6-fluoro-4-oxo-3,4-dihydrobenzo [5,6][1,4]dioxo [2,3-d]pyrimidine-8-carboxamide] | < 0.05 | < 0.2 | – |
| NC(=O)c1cc2c(c(F)c1-c1c(Cl)c(F)cc3c1C[C@](c1ccccc1)([C@@H]1CCCN1)O3)Oc1nc(CO)cnc1O2 (atropisomer, axis not shown) [Compound 101, (S)-8-((S)-5-Chloro-6-fluoro-2-phenyl-2-((S)-pyrrolidin-2-yl)-2,3-dihydrobenzofuran-4-yl)-9-fluoro-2-(hydroxymethyl)benzo[5,6] [1,4]dioxo [2,3-b]pyrazine-7-carboxamide] | < 0.05 | < 0.2 | – |
| CCC(=O)N1CCOc2c1cc(C(N)=O)c(-c1c(Cl)c(F)cc3c1C[C@](c1ccccc1)([C@@H]1CCCN1)O3)c2F (atropisomer, axis not shown) [Compound I-29, (S)-7-((S)-5-Chloro-6-fluoro-2-phenyl-2-((S)-pyrrolidin-2-yl)-2,3-dihydrobenzofuran-4-yl)-8-fluoro-4-propionyl-3,4-dihydro-2H-benzo[b][1,4]oxazine-6-carboxamide] | < 0.05 | 0.2 to 0.5 | – |
